Literature values in US20250241996A1, “COMBINATORIAL, AND ROTATIONAL COMBINATORIAL THERAPIES” (Starrock Pharma Inc., priority 2022, published 2025).
Like-named read-outs stand apart in the source and are kept apart here.

Columns and labels:
[1] = Model: in vitro; cited from earlier work
[2] = oral administration; mice; cited from earlier work
[3] = intravenous; 18 obese patients; cited from earlier work
[4] = injections, 4-week study; saline 0.5±0.5 kg; cited from earlier work
[5] = cited from earlier work; for average weight reduction (efficacy estimate): placebo 2.4%; for treatment discontinuation rate due to adverse events: placebo 2.6%; for overall treatment discontinuation rate: placebo 26.4%; for people achieving at least 5% body weight reductions: placebo 28%; for Body weight change from baseline / Estimated mean weight change / Patients with weight loss of >5% / Patients with weight loss of >20%: week 72
[6] = cited from earlier work
[7] = two hours after infusion, P<0.001, cited from earlier work
[8] = cited from earlier work; remark: listed apart in the source

Molecule: O=C1CCC(N2C(=O)c3ccccc3C2=O)C(=O)N1 (stereo not drawn) [Thalidomide]
- Results [1]: decrease TNF-α from Aβ42-

Molecule: enterostatin
- serum cholesterol [2]: reduce serum cholesterol after oral administration in mice
- feelings of hunger, satiety, or food preference [3]: did not impact feelings of hunger, satiety, or food preference

Molecule: oxyntomodulin: 37-amino acid peptide hormone (SEQ ID NO:4) (HSQGTFTSDYSKYLDSRRAQDFVQWLMNTKRNRNNIA; Oxyntomodulin (OXY/OXM 53-89); listed as Homo sapiens)
- average weight loss [4]: 2.3 ± 0.4 kg

Molecule: tirzepatide
- average weight reduction (efficacy estimate) ([5]; 5 mg): 16.0%
- treatment discontinuation rate due to adverse events ([5]; 5 mg): 4.3%
- overall treatment discontinuation rate ([5]; 5 mg): 14.3%
- people achieving at least 5% body weight reductions ([5]; 5 mg): 89%
- average weight reduction (efficacy estimate) ([5]; 10 mg): 21.4%
- treatment discontinuation rate due to adverse events ([5]; 10 mg): 7.1%
- overall treatment discontinuation rate ([5]; 10 mg): 16.4%
- people achieving at least 5% body weight reductions ([5]; 10 mg): 96%
- average weight reduction (efficacy estimate) ([5]; 15 mg): 22.5%
- treatment discontinuation rate due to adverse events ([5]; 15 mg): 6.2%
- overall treatment discontinuation rate ([5]; 15 mg): 15.1%
- people achieving at least 5% body weight reductions ([5]; 15 mg): 96%
- body weight lost (up to) ([5]; 5, 10, 15 mg, 72 weeks): ≤ 52 lb.
- Body weight change from baseline ([5]; SC 5 mg): -16 kg
- Estimated mean weight change ([5]; SC 5 mg): −15%
- Patients with weight loss of >5% ([5]; SC 5 mg): 85%
- Patients with weight loss of >20% ([5]; SC 5 mg): 30%
- Body weight change from baseline ([5]; SC 10 mg): -22 kg
- Estimated mean weight change ([5]; SC 10 mg): −19.5%
- Patients with weight loss of >5% ([5]; SC 10 mg): 89%
- Patients with weight loss of >20% ([5]; SC 10 mg): 50%
- Body weight change from baseline ([5]; SC 15 mg): -24 kg
- Estimated mean weight change ([5]; SC 15 mg): −20.9%
- Patients with weight loss of >5% ([5]; SC 15 mg): 91%
- Patients with weight loss of >20% ([5]; SC 15 mg): 57%
- trial participants experiencing abdominal pain ([5]; in vivo): 5%
- trial participants experiencing constipation ([5]; in vivo): 7%
- trial participants experiencing diarrhea ([5]; in vivo): 17%
- trial participants experiencing nausea ([5]; in vivo): 18%
- trial participants experiencing vomiting ([5]; in vivo): 9%
- long-term blood sugar control (A1C) and weight loss compared to semaglutide ([6]; human, in vivo): significantly better long-term blood sugar control (i.e., A1C) and weight loss compared to semaglutide
- body weight reduction ([6]; phase III, type 2 diabetes, semaglutide comparator at 1 mg): > 15%

B1: PYY: 36-amino acid peptide released from cells in the ileum and colon (peptide, listed as Homo sapiens)
chain: MVFVRRPWPALTTVLLALLVCLGALVDAYPIKPEAPREDASPEELNRYYASLRHYLNLVTRQRYGKRDGPDTLLSKTFFPDGEDRPVRSRSEGPDLW
modifications: Peptide tyrosine-tyrosine (PYY)
notes: 36-amino acid peptide released from cells in the ileum and colon
- decrease of caloric intake during a buffet lunch ([7]; lean subjects): 31%
- decrease of caloric intake during a buffet lunch ([7]; obese subjects): 30%

B2: adiponectin: 244-amino-acid-long polypeptide (SEQ ID NO:2) (protein, listed as Homo sapiens)
chain: MLLLGAVLLLLALPGHDQETTTQGPGVLLPLPKGACTGWMAGIPGHPGHNGAPGRDGRDGTPGEKGEKGDPGLIGPKGDIGETGVPGAEGPRGFPGIQGRKGEPGEGAYVYRSAFSVGLETYVTIPNMPIRFTKIFYNQQNHYDGSTGKFHCNIPGLYYFAYHITVYMKDVKVSLFKKDKAMLFTYDQYQENNVDQASGSVLLHLEVGDQVWLQVYGEGERNGLYADNDNDSTFTGFLLYHDTN
modifications: Adiponectin
- half-life [8]: 2.5 h
